Source: patent publication US20240124460A1, “METHODS AND COMPOSITIONS FOR TARGETED PROTEIN DEGRADATION” (Ranok Therapeutics (Hangzhou) Co. Ltd., priority 2020, published 2024)

Key:
[1] = system: MV-4-11 human acute myeloid leukemia; assay: MV-4-11 CCK-8 proliferation assay; type: cell-based; settings: Homo sapiens, MV4-11; MV-4-11 cells, 72 hr
How it was run: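 Inhibition is derived from CCK-8 absorbance of compound-treated cells relative to DMSO-treated cells, after subtracting a cell-free medium/DMSO background. Test concentrations span 20 μM down to 1.02 nM in 3-fold steps, and lines are cultured as ATCC recommends.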

[2] = system: U-87 MG human glioblastoma; assay: U87 MG CCK-8 proliferation assay; type: cell-based; settings: Homo sapiens, U-87 MG, 72 h, U-87 MG cells, read-out: U87MG CCK-8
Experimental: The following cancer cell lines were employed: A549 human lung carcinoma (ATCC, #CCL-185); BT-474 human breast carcinoma (ATCC, #HTB-20); MDA-MB-231 human breast adenocarcinoma (ATCC, #CRM−HTB-26); MDA-MB-468 human breast adenocarcinoma (ATCC, #HTB-132); MV-4-11 human acute myeloid leukemia (ATCC, #CRL-9591); and U-87 MG human glioblastoma (ATCC, #HTB-14). Cell lines were cultured essentially according to ATCC recommendations.
3-fold serial dilutions of each test compound were prepared ranging from 20 μM to 1.02 nM.
% Inhibition=100−(D−B)/(S−B)*100%. • S: Absorbance of cells treated with DMSO • D: Absorbance of compound-treated cells • B: Absorbance of medium with DMSO without cells

Structure (SMILES) | EC50 [1] [nM] | EC50 [2] [nM]
CCOc1cc(N2CCC(C(=O)NCc3ccc(CN(CC)Cc4ccc(-n5c(O)nnc5-c5cc(C(C)C)c(O)cc5O)cc4)cc3)CC2)ccc1Nc1ncc2c(n1)N(C)c1ccccc1C(=O)N2C [Compound 165, N-(4-(((4-(3-(2,4-dihydroxy-5-isopropylphenyl)-5-hydroxy-4H-1,2,4-triazol-4-yl)benzyl)(ethyl)amino)methyl)benzyl)-1-(4-((5,11-dimethyl-6-oxo-6,11-dihydro-5H-benzo[e]pyrimido[5,4-b][1,4]diazepin-2-yl)amino)-3-ethoxyphenyl)piperidine-4-carboxamide] | < 100 | 100 to 1000
CCOc1cc(N2CCC(C(=O)N3CCN(Cc4ccc(-n5c(O)nnc5-c5cc(C(C)C)c(O)cc5O)cc4)CC3)CC2)ccc1Nc1ncc2c(n1)N(S(C)(=O)=O)c1ccccc1C(=O)N2C [Compound 159, 2-((4-(4-(4-(4-(3-(2,4-dihydroxy-5-isopropylphenyl)-5-hydroxy-4H-1,2,4-triazol-4-yl)benzyl)piperazine-1-carbonyl)piperidin-1-yl)-2-ethoxyphenyl)amino)-5-methyl-11-(methylsulfonyl)-5,11-dihydro-6H-benzo[e]pyrimido[5,4-b][1,4]diazepin-6-one] | < 100 | < 100
CCOc1cc(N2CCC(C(=O)NCc3ccc(CN(C)Cc4ccc(-n5c(O)nnc5-c5cc(C(C)C)c(O)cc5O)cc4)cc3)CC2)ccc1Nc1ncc2c(n1)N(S(C)(=O)=O)c1ccccc1C(=O)N2C [Compound 170, N-(4-(((4-(3-(2,4-dihydroxy-5-isopropylphenyl)-5-hydroxy-4H-1,2,4-triazol-4-yl)benzyl)(methyl)amino)methyl)benzyl)-1-(3-ethoxy-4-((5-methyl-11-(methylsulfonyl)-6-oxo-6,11-dihydro-5H-benzo[e]pyrimido[5,4-b][1,4]diazepin-2-yl)amino)phenyl)piperidine-4-carboxamide] | < 100 | < 100
CCOc1cc(N2CCC(CN3CCN(Cc4ccc(-n5c(O)nnc5-c5cc(C(C)C)c(O)cc5O)cc4)CC3)CC2)ccc1Nc1ncc2c(n1)N(S(C)(=O)=O)c1ccccc1C(=O)N2C [Compound 187, 2-((4-(4-((4-(4-(3-(2,4-dihydroxy-5-isopropylphenyl)-5-hydroxy-4H-1,2,4-triazol-4-yl)benzyl)piperazin-1-yl)methyl)piperidin-1-yl)-2-ethoxyphenyl)amino)-5-methyl-11-(methylsulfonyl)-5,11-dihydro-6H-benzo[e]pyrimido[5,4-b][1,4]diazepin-6-one] | < 100 | < 100
CCOc1cc(N2CCC(C(=O)N3CCC(CN4CCN(Cc5ccc(-n6c(C(=O)NC(C)C(F)(F)F)nnc6-c6cc(CC)c(O)cc6OC(=O)C(C)C)cc5)CC4)CC3)CC2)ccc1Nc1ncc2c(n1)N(S(C)(=O)=O)c1ccccc1C(=O)N2C (stereo not shown) [Compound 162, 2-(4-(4-((4-((1-(1-(3-ethoxy-4-((5-methyl-11-(methylsulfonyl)-6-oxo-6,11-dihydro-5H-benzo[e]pyrimido[5,4-b][1,4]diazepin-2-yl)amino)phenyl)piperidine-4-carbonyl)piperidin-4-yl)methyl)piperazin-1-yl)methyl)phenyl)-5-((1,1,1-trifluoropropan-2-yl)carbamoyl)-4H-1,2,4-triazol-3-yl)-4-ethyl-5-hydroxyphenyl isobutyrate] | 100 to 1000 | 100 to 1000
CCOc1cc(N2CCC(C(=O)N3CCC(Oc4ccc(-c5ccc(NC(=O)c6ccc(OC)c(-c7cccc(OC)c7)c6)cc5)cc4)CC3)CC2)ccc1Nc1ncc2c(n1)N(S(C)(=O)=O)c1ccccc1C(=O)N2C [Compound 144, N-(4′-((1-(1-(3-ethoxy-4-((5-methyl-11-(methylsulfonyl)-6-oxo-6,11-dihydro-5H-benzo[e]pyrimido[5,4-b][1,4]diazepin-2-yl)amino)phenyl)piperidine-4-carbonyl)piperidin-4-yl)oxy)-[1,1′-biphenyl]-4-yl)-3′,6-dimethoxy-[1,1′-biphenyl]-3-carboxamide] | > 1000 | > 1000
CCOc1cc(N2CCC(C(=O)N3CCN(Cc4ccc(-n5c(C(=O)NCCN(CC)CC)nnc5-c5cc(C(C)C)c(O)cc5O)cc4)CC3)CC2)ccc1Nc1ncc2c(n1)N(S(C)(=O)=O)c1ccccc1C(=O)N2C [Compound 164, N-(2-(diethylamino)ethyl)-5-(2,4-dihydroxy-5-isopropylphenyl)-4-(4-((4-(1-(3-ethoxy-4-((5-methyl-11-(methylsulfonyl)-6-oxo-6,11-dihydro-5H-benzo[e]pyrimido[5,4-b][1,4]diazepin-2-yl)amino)phenyl)piperidine-4-carbonyl)piperazin-1-yl)methyl)phenyl)-4H-1,2,4-triazole-3-carboxamide] | < 100 | < 100
CCOc1cc(N2CCC(C(=O)N3CCN(Cc4ccc(-n5c(C(=O)NCC(F)(F)C(F)(F)F)nnc5-c5cc(C(C)C)c(O)cc5O)cc4)CC3)CC2)ccc1Nc1ncc2c(n1)N(S(C)(=O)=O)c1ccccc1C(=O)N2C [Compound 175, 5-(2,4-dihydroxy-5-isopropylphenyl)-4-(4-((4-(1-(3-ethoxy-4-((5-methyl-11-(methylsulfonyl)-6-oxo-6,11-dihydro-5H-benzo[e]pyrimido[5,4-b][1,4]diazepin-2-yl)amino)phenyl)piperidine-4-carbonyl)piperazin-1-yl)methyl)phenyl)-N-(2,2,3,3,3-pentafluoropropyl)-4H-1,2,4-triazole-3-carboxamide] | < 100 | < 100
CCOc1cc(N2CCC(C(=O)NCCCOc3ccc(-c4ccc(NC(=O)c5ccc(OC)c(-c6cccc(OC)c6)c5)cc4)cc3)CC2)ccc1Nc1ncc2c(n1)N(C)c1ccccc1C(=O)N2C [Compound 147, N-(3-((4′-(3′,6-dimethoxy-[1,1′-biphenyl]-3-carboxamido)-[1,1′-biphenyl]-4-yl)oxy)propyl)-1-(4-((5,11-dimethyl-6-oxo-6,11-dihydro-5H-benzo[e]pyrimido[5,4-b][1,4]diazepin-2-yl)amino)-3-ethoxyphenyl)piperidine-4-carboxamide] | > 1000 | > 1000
CCOc1cc(N2CCC(C(=O)NCCCOc3ccc(-c4ccc(NC(=O)c5ccc(OC)c(-c6cccc(OC)c6)c5)cc4)cc3)CC2)ccc1Nc1ncc2c(n1)N(S(C)(=O)=O)c1ccccc1C(=O)N2C [Compound 148, N-(3-((4′-(3′,6-dimethoxy-[1,1′-biphenyl]-3-carboxamido)-[1,1′-biphenyl]-4-yl)oxy)propyl)-1-(3-ethoxy-4-((5-methyl-11-(methylsulfonyl)-6-oxo-6,11-dihydro-5H-benzo[e]pyrimido[5,4-b][1,4]diazepin-2-yl)amino)phenyl)piperidine-4-carboxamide] | > 1000 | > 1000
CCOc1cc(N2CCC(C(=O)N3CCN(Cc4ccc(-n5c(C(=O)NCC(F)(F)C(F)(F)F)nnc5-c5cc(C(C)C)c(O)cc5O)cc4)CC3)CC2)ccc1Nc1ncc2c(n1)N(C)c1ccccc1C(=O)N2C [Compound 173, 5-(2,4-dihydroxy-5-isopropylphenyl)-4-(4-((4-(1-(4-((5,11-dimethyl-6-oxo-6,11-dihydro-5H-benzo[e]pyrimido[5,4-b][1,4]diazepin-2-yl)amino)-3-ethoxyphenyl)piperidine-4-carbonyl)piperazin-1-yl)methyl)phenyl)-N-(2,2,3,3,3-pentafluoropropyl)-4H-1,2,4-triazole-3-carboxamide] | < 100 | < 100
